{"source": "patent US6395746B1", "about": "“Methods of treating ophthalmic, otic and nasal infections and attendant inflammation” (Alcon Manufacturing, Ltd., priority 1998, dated 2002)", "assay_in_all_cases": "Minimum inhibitory concentration (MIC90)", "type_in_all_cases": "cell-based", "key": {"[1]": {"test_system": "S. pneumoniae/penicillin resistant", "text": "(§1) The concentrations of the antibiotics of formula (I) in the compositions of the present invention will vary depending on the intended use of the compositions (e.g., treatment of existing infections or prevention of post-surgical infections), and the relative antimicrobial activity of the specific antibiotic selected. The antimicrobial activity of antibiotics is generally expressed as the minimum concentration required to inhibit the growth of a specified pathogen. This concentration is also referred to as the “minimum inhibitory concentration” or “MIC”. The term “MIC90” refers to the minimum concentration of antibiotic required to inhibit the growth of ninety percent (90%) of the strains of a species. The concentration of an antibiotic required to totally kill a specified bacteria is referred to as the “minimum bactericidal concentration” or “MBC”. The minimum inhibitory concentration of Trovafloxacin for several bacteria commonly associated with ophthalmic, otic and nasal infections are provided in the following table: […]"}, "[2]": {"test_system": "S. aureus/methicillin resistant", "text": "as §1"}, "[3]": {"test_system": "H. influenzae/β-lactamase positive", "text": "as §1"}, "P. aeruginosa": {"test_system": "P. aeruginosa", "text": "as §1"}, "[4]": {"test_system": "H. influenzae/βlactamase negative", "text": "as §1"}, "[5]": {"test_system": "S. aureus/quinolone resistant", "text": "as §1"}, "[6]": {"test_system": "S. pneumoniae/penicillin sensitive", "text": "as §1"}, "[7]": {"test_system": "S. epidermidis/methicillin sensitive", "text": "as §1"}, "[8]": {"test_system": "S. epidermidis/methicillin resistant", "text": "as §1"}, "[9]": {"test_system": "S. aureus/methicillin sensitive", "text": "as §1"}}}
{"compound": "N[C@@H]1[C@H]2CN(c3nc4c(cc3F)c(=O)c(C(=O)O)cn4-c3ccc(F)cc3F)C[C@@H]12", "note": "[Trovafloxacin]", "values": [{"measurement": "MIC90", "setting": "[1]", "value": 0.25, "unit": "µg/mL"}, {"measurement": "MIC90", "setting": "[2]", "value": 2.0, "unit": "µg/mL"}, {"measurement": "MIC90", "setting": "[3]", "value": 0.03, "unit": "µg/mL"}, {"measurement": "MIC90", "setting": "P. aeruginosa", "value": 2.0, "unit": "µg/mL"}, {"measurement": "MIC90", "setting": "[4]", "value": 0.03, "unit": "µg/mL"}, {"measurement": "MIC90", "setting": "[5]", "value": 4.0, "unit": "µg/mL"}, {"measurement": "MIC90", "setting": "[6]", "value": 0.25, "unit": "µg/mL"}, {"measurement": "MIC90", "setting": "[7]", "value": 0.06, "unit": "µg/mL"}, {"measurement": "MIC90", "setting": "[8]", "value": 4.0, "unit": "µg/mL"}, {"measurement": "MIC90", "setting": "[9]", "value": 0.03, "unit": "µg/mL"}]}
